A short description of data set [1]: Mutagenicity in Salmonella typhimurium TA100 in presence of liver S9 fraction by AMES test. The format is toxicity, subcellular. The following applies: salmonella enterica subsp. enterica serovar typhimurium.
Data set [2] is described as follows: Mutagenicity in Salmonella typhimurium TA100 by AMES test. The format is toxicity. The conditions noted are these: salmonella enterica subsp. enterica serovar typhimurium.
Data set [3] in a line: Mutagenicity in Salmonella typhimurium TA98 in presence of liver S9 fraction by AMES test. The class given is toxicity, subcellular. The conditions noted are these: salmonella enterica subsp. enterica serovar typhimurium.
The nature of data set [4]: Mutagenicity in Salmonella typhimurium TA98 by AMES test. The format is toxicity. The conditions noted are these: salmonella enterica subsp. enterica serovar typhimurium.
The test system of data set [5] is Hepatitis C virus. The data set can be described thus: Antiviral activity against Hepatitis C virus subtype 1b harboring NS5A L31V/Y93H double mutant infected in Huh 7.5.1 cells assessed as reduction in viral replication incubated for 3 days by NK5.1 luciferase reporter gene assay. The conditions noted are these: Huh-7.5.1, 72 h. The format is functional, organism-based, Hepacivirus hominis.

The subject of data set [6] is Hepatitis C virus. Nature of the data set: Antiviral activity against Hepatitis C virus subtype 1b harboring NS5A Y93H mutant infected in Huh 7.5.1 cells assessed as reduction in viral replication incubated for 3 days by NK5.1 luciferase reporter gene assay. The format is functional, organism-based, Hepacivirus hominis. The conditions noted are these: Huh-7.5.1, 72 h.

Data set [7] has as its system Hepatitis C virus. Nature of the data set: Antiviral activity against Hepatitis C virus subtype 1b harboring NS5A L31V mutant infected in Huh 7.5.1 cells assessed as reduction in viral replication incubated for 3 days by NK5.1 luciferase reporter gene assay. The format is functional, organism-based, Hepacivirus hominis. The following applies: Huh-7.5.1, 72 h.
For data set [8], the system named is Hepatitis C virus. The data set can be described thus: Antiviral activity against Hepatitis C virus subtype 3a infected in Huh 7.5.1 cells assessed as reduction in viral replication incubated for 3 days by S52-Feo luciferase reporter gene assay. The conditions noted are these: Huh-7.5.1, 72 h. The class given is functional, organism-based, Hepacivirus hominis.

Data set [9] deals with Hepatitis C virus. Nature of the data set: Antiviral activity against Hepatitis C virus subtype 2a infected in Huh 7.5.1 cells assessed as reduction in viral replication incubated for 3 days by JC1 Gaussia luciferase reporter gene assay. The class given is functional, organism-based, Hepacivirus hominis. The following applies: Huh-7.5.1, 72 h.
The subject of data set [10] is Hepatitis C virus. The data set can be described thus: Antiviral activity against Hepatitis C virus subtype 1b infected in Huh 7.5.1 cells assessed as reduction in viral replication incubated for 3 days by NK5.1 luciferase reporter gene assay. The following applies: Huh-7.5.1, 72 h. The class given is functional, organism-based, Hepacivirus hominis.

Turning to `CCCCC(c1ccccc1)n1c2cc(N)ccc2c2ccc(N)cc21` (stereo not given), the Activity result is “Non-Toxic” in data set [1], “Non-Toxic” in data set [2], “Toxic” in data set [3] and “Non-Toxic” in [4].

Regarding `Nc1ccc2c3ccc(N)cc3n(CCCCCCCCCCN3CCOCC3)c2c1`, the Activity entry in data set [1], in [2], in data set [3] and in data set [4] was “Non-Toxic” throughout.

Regarding `CCCCC(CCCC)n1c2cc(N)ccc2c2ccc(N)cc21`, the Activity result in data set [1], in [2], in data set [3] and in [4] was “Non-Toxic” each time.

Regarding `Nc1ccc2c(c1)C(=Cc1ccncc1)c1cc(N)ccc1-2`, the Activity result in [1] is listed as “Toxic”; in data set [2], “Non-Toxic”; in [3], “Toxic”; in data set [4], “Non-Toxic”.

With `Nc1ccc2c(c1)C(c1ccc3ccccc3c1)c1cc(N)ccc1-2`, the Activity result in [1] is “Non-Toxic”; in data set [2], “Non-Toxic”; in data set [3], “Toxic”; in data set [4], “Non-Toxic”.

`Nc1ccc2c3ccc(N)cc3n(Cc3cccc(OC4CCCC4)c3)c2c1`: the Activity entry in data set [1] was “Non-Toxic”; in data set [2], “Non-Toxic”; in data set [3], “Toxic”; in data set [4], “Non-Toxic”.

Consider `CC(C)(C)c1ccc(C2c3cc(N)ccc3-c3ccc(N)cc32)cc1`, for which the Activity result in data set [1] is given as “Non-Toxic”; in data set [2], “Non-Toxic”; in data set [3] it was “Toxic”; in data set [4] it was “Non-Toxic”.

`CCCCCCCCCCn1c2cc(N)ccc2c2ccc(N)cc21`: the Activity result is given as “Non-Toxic” in data set [1], “Non-Toxic” in data set [2], “Toxic” in data set [3] and “Non-Toxic” in data set [4].

In the case of `CCCCC1(CCCC)c2cc(NC(=O)[C@@H]3C[C@@H](O)CN3C(=O)[C@H](NC(=O)OC)c3ccccc3)ccc2-c2ccc(NC(=O)[C@@H]3C[C@@H](O)CN3C(=O)[C@H](NC(=O)OC)c3ccccc3)cc21`, the EC50 stood at 41.4 nM in the data set on Hepatitis C virus [5]; 0.88 nM in the data set with Hepatitis C virus [6]; 3 pM in the data set on Hepatitis C virus [7]; 0.016 nM in the data set with Hepatitis C virus [8]; 1.2 nM in the data set on Hepatitis C virus [9]; 2 pM with Hepatitis C virus [10].

For the molecule `Nc1ccc2c(c1)C(CCCCC(F)(F)F)(CCCCC(F)(F)F)c1cc(N)ccc1-2`, the Activity entry in data set [1], in [2], in [3] and in [4] was “Non-Toxic” throughout.

For the molecule `CC(C)c1ccc(C2c3cc(N)ccc3-c3ccc(N)cc32)cc1`, the Activity result is “Non-Toxic” in [1], “Non-Toxic” in data set [2], “Toxic” in data set [3] and “Non-Toxic” in [4].

Regarding `Nc1ccc2c3ccc(N)cc3n(C(C3CC3)C3CC3)c2c1`, the Activity result in [1] was “Toxic”; in data set [2], “Non-Toxic”; in [3] it was “Toxic”; in data set [4], “Non-Toxic”.

As for `CCCCCCCCCCCCn1c2cc(N)ccc2c2ccc(N)cc21`, the Activity entry in [1], in [2], in [3] and in [4] was “Non-Toxic” each time.

Regarding `Nc1ccc2c(c1)C(Cc1ccc(C(F)(F)F)cc1)c1cc(N)ccc1-2`, the Activity entry in data set [1] is “Non-Toxic”; in data set [2], “Non-Toxic”; in data set [3], “Toxic”; in [4], “Toxic”.

Turning to `Nc1ccc2c(c1)C(c1ccc(C(F)(F)F)cc1)c1cc(N)ccc1-2`, the Activity entry in data set [1] is recorded as “Non-Toxic”; in [2] it was “Non-Toxic”; in data set [3], “Toxic”; in data set [4], “Non-Toxic”.

With `Nc1ccc2c(c1)C(c1ccc(Br)cc1)c1cc(N)ccc1-2`, the Activity result in [1] is listed as “Non-Toxic”; in data set [2], “Non-Toxic”; in [3], “Toxic”; in data set [4] it was “Non-Toxic”.

As to `COCCOc1cccc(Cn2c3cc(N)ccc3c3ccc(N)cc32)c1`, the Activity result is given as “Non-Toxic” in data set [1], “Non-Toxic” in data set [2], “Toxic” in data set [3] and “Non-Toxic” in data set [4].

For the molecule `CC(C)=CC1c2cc(N)ccc2-c2ccc(N)cc21`, the Activity result in data set [1], in data set [2], in [3] and in [4] was “Toxic” each time.

Consider `Nc1ccc2c(c1)C(c1ccc(F)cc1)c1cc(N)ccc1-2`, for which the Activity entry in data set [1] is recorded as “Non-Toxic”; in data set [2] it was “Non-Toxic”; in [3], “Toxic”; in [4], “Non-Toxic”.

As to `CCCC1(CCC)c2cc(N)ccc2-c2ccc(N)cc21`, the Activity entry in data set [1] is “Non-Toxic”; in data set [2], “Non-Toxic”; in data set [3], “Toxic”; in [4], “Non-Toxic”.

Regarding `CC(c1ccccc1)n1c2cc(N)ccc2c2ccc(N)cc21` (stereo not given), the Activity entry is on record as “Toxic” in data set [1], “Non-Toxic” in data set [2], “Toxic” in data set [3] and “Non-Toxic” in [4].

In the case of `CCCCn1c2cc(N)ccc2c2ccc(N)cc21`, the Activity entry in data set [1], in data set [2], in [3] and in data set [4] was “Toxic” each time.

As to `Nc1ccc2c(c1)C(CCCC(F)(F)F)(CCCC(F)(F)F)c1cc(N)ccc1-2`, the Activity result is “Non-Toxic” in data set [1], “Non-Toxic” in data set [2], “Toxic” in [3] and “Non-Toxic” in data set [4].

For `CCCCCCCCCC(c1ccccc1)n1c2cc(N)ccc2c2ccc(N)cc21` (stereo not given), the Activity result in data set [1], in data set [2], in data set [3] and in data set [4] was “Non-Toxic” each time.

For the molecule `CCCCOc1ccc(Cn2c3cc(N)ccc3c3ccc(N)cc32)cc1`, the Activity entry is recorded as “Non-Toxic” in [1], “Non-Toxic” in [2], “Toxic” in data set [3] and “Non-Toxic” in data set [4].

`Nc1ccc2c(c1)C(=Cc1ccc(C(F)(F)F)cc1)c1cc(N)ccc1-2`: the Activity result in [1] is on record as “Non-Toxic”; in data set [2] it was “Non-Toxic”; in data set [3], “Toxic”; in data set [4], “Toxic”.

`CCCCCCOc1ccc(Cn2c3cc(N)ccc3c3ccc(N)cc32)cc1`: the Activity result is “Non-Toxic” in [1], “Non-Toxic” in [2], “Toxic” in data set [3] and “Non-Toxic” in [4].

Values taken from ChEMBL document CHEMBL4673315, “Structure-activity relationship (SAR) studies on the mutagenic properties of 2,7-diaminofluorene and 2,7-diaminocarbazole derivatives” (Bioorg Med Chem Lett, 2021).
